Data reported in ChEMBL document CHEMBL6120994, “Unravelling the potential of natural chelating agents in the control of Staphylococcus aureus and Pseudomonas aeruginosa biofilms” (Eur J Med Chem, 2025).
The source made the active and inactive calls. The rule behind the calls is not given here.

Legend:
[1] = tested on: Staphylococcus aureus; assay: Inhibition of virulence production in Staphylococcus aureus CECT 976 biofilms assessed as diameter of siderophores halo at 1/2XMTC measured after 48 hrs (reference value: 12 mm); assay type: functional
[2] = tested on: Cell membrane; assay: Disruption of membrane integrity in Staphylococcus aureus CECT 976 biofilm at 500 ug/ml measured after 24 hrs in presence of 1/2XMIC tobramycin by SYTO9/PI dye based epifluorescence microscopy; assay type: subcellular; conditions: dose 500.0 µg/ml
[3] = tested on: Staphylococcus aureus; assay: Inhibition of virulence production in Staphylococcus aureus CECT 976 biofilms assessed as diameter of gelatinases halo at 1/2XMTC measured after 48 hrs in presence of 1/4XMIC tobramycin (reference value: 11.3 to 11.8 mm); assay type: functional
[4] = tested on: Staphylococcus aureus; assay: Antibiotic adjuvant activity against Staphylococcus aureus CECT 976 assessed as potentiation of tobamycin-induced antibacterial activity by measuring tobramycin MBC at 62.5 ug/ml measured after 24 hrs by checkerboard assay (reference value: 4 ug/ml); assay type: functional; conditions: dose 62.5 µg/ml
[5] = tested on: Staphylococcus aureus; assay: Inhibition of virulence production in Staphylococcus aureus CECT 976 biofilms assessed as diameter of lipases halo at 1/2XMTC measured after 48 hrs in presence of 1/2XMIC tobramycin (reference value: 12.5 to 13.5 mm); assay type: functional
[6] = Cytotoxicity against human HepG2 cells assessed as metabolic activity by measuring resazurin reduction at 93.5 to 1000 ug/ml measured after 24 hrs by resazurin reduction method; assay type: toxicity, cell-based; conditions: at 93.5 to 1000 µg/mL, dose 93.5-1000 µg/ml, read-out: Activity
[7] = tested on: Staphylococcus aureus; assay: Inhibition of virulence production in pre-established 24 hr-old Staphylococcus aureus CECT 976 biofilms assessed as diameter of gelatinases halo at 10XMTC measured after 48 hrs (reference value: 10.8 to 11 mm); assay type: functional
[8] = tested on: Pseudomonas aeruginosa; assay: Antibiotic adjuvant activity against Pseudomonas aeruginosa ATCC 10145 assessed as potentiation of ciprofloxacin-induced antibacterial activity by measuring ciprofloxacin MIC at 15.6 ug/ml measured after 24 hrs by checkerboard assay (reference value: […] ug/ml); assay type: functional; conditions: dose 15.6 µg/ml
[9] = tested on: Pseudomonas aeruginosa; assay: Antibacterial activity against Pseudomonas aeruginosa ATCC 10145 assessed as inhibition of bacterial growth incubated for 24 hrs by broth microdilution method; assay type: functional
[10] = tested on: Staphylococcus aureus; assay: Antibiotic adjuvant activity against Staphylococcus aureus CECT 976 assessed as potentiation of tobramycin-induced antibiofilm activity by measuring reduction in biomass production at 500 ug/ml measured after 24 hrs in presence of tobramycin by crystal violet staining method; assay type: functional, organism-based; conditions: dose 500.0 µg/ml
[11] = tested on: Cell membrane; assay: Disruption of membrane integrity in pre-established 24 hr-old Staphylococcus aureus CECT 976 assessed as reduction in number of cells at 10XMTC measured after 24 hrs in presence of 1XMIC tobramycin by SYTO9/PI dye based epifluorescence microscopy
[12] = tested on: Staphylococcus aureus; assay: Antibacterial activity against Staphylococcus aureus CECT 976 assessed as inhibition of bacterial growth by measuring inhibition zone diameter at 1000 ug/ml incubated for 24 hrs in presence of gentamicin by disc diffusion method (reference value: 12 +/- 1.63 mm); assay type: functional; conditions: read-out: DIZ
[13] = tested on: Staphylococcus aureus; assay: Inhibition of virulence production in Staphylococcus aureus CECT 976 biofilms assessed as diameter of siderophores halo at 1/2XMTC measured after 48 hrs in presence of 1/4XMIC tobramycin (reference value: 10.5 +/-0.6 mm); assay type: functional
[14] = tested on: Staphylococcus aureus; assay: Antibiofilm activity against preestablished 24 hr-old Staphylococcus aureus CECT 976 assessed as reduction in metabolic activity of biofilm cells at 10XMTC by resazurin staining based fluorescence analysis; assay type: functional
[15] = tested on: Pseudomonas aeruginosa; assay: Antibacterial activity against Pseudomonas aeruginosa ATCC 10145 assessed as inhibition of bacterial growth by measuring inhibition zone diameter at 100 ug/ml incubated for 24 hrs in presence of gentamicin by disc diffusion method (reference value: 8.25 +/-0.5 mm); assay type: functional; conditions: read-out: DIZ
[16] = tested on: Staphylococcus aureus; assay: Inhibition of virulence production in Staphylococcus aureus CECT 976 biofilms assessed as diameter of protease halo at 1/2XMTC measured after 72 hrs in presence of 1/2XMIC tobramycin (reference value: 12.5 to 13.3 mm); assay type: functional
[17] = tested on: Staphylococcus aureus; assay: Inhibition of virulence production in pre-established 24 hr-old Staphylococcus aureus CECT 976 biofilms assessed as diameter of siderophores halo at 10XMTC measured after 48 hrs in presence of 1XMIC tobramycin (reference value: 11.3 +/-0.5 mm); assay type: functional
[18] = Metal chelating activity at iron(III) in chrome azurol sulphonate solution assessed as absorption spectra peak around […] incubated for 30 mins by spectrophotometric analysis
[19] = tested on: Pseudomonas aeruginosa; assay: Bactericidal activity against Pseudomonas aeruginosa ATCC 10145 assessed as bacterial killing incubated in MHB for 24 hrs and measured following culturing on agar plate for 24 hrs; assay type: functional; conditions: time 48 hrs
[20] = tested on: Staphylococcus aureus; assay: Inhibition of virulence production in pre-established 24 hr-old Staphylococcus aureus CECT 976 biofilms assessed as diameter of protease halo at 10XMTC measured after 72 hrs in presence of 1/4XMIC tobramycin (reference value: 12.5 to 12.8 mm); assay type: functional
[21] = tested on: Staphylococcus aureus; assay: Inhibition of virulence production in Staphylococcus aureus CECT 976 biofilms assessed as diameter of siderophores halo at 1/2XMTC measured after 48 hrs in presence of 1/8XMIC tobramycin (reference value: 10.5 +/-0.6 mm); assay type: functional
[22] = tested on: Staphylococcus aureus; assay: Inhibition of virulence production in pre-established 24 hr-old Staphylococcus aureus CECT 976 biofilms assessed as diameter of siderophores halo at 1XMTC measured after 48 hrs (reference value: 11.5 to 11.8 mm); assay type: functional
[23] = tested on: Staphylococcus aureus; assay: Inhibition of virulence production in pre-established 24 hr-old Staphylococcus aureus CECT 976 biofilms assessed as diameter of gelatinases halo at 1XMTC measured after 48 hrs (reference value: 10 mm); assay type: functional
[24] = tested on: Pseudomonas aeruginosa; assay: Antibiotic adjuvant activity against preestablished 24-hr old Pseudomonas aeruginosa ATCC 10145 assessed as potentiation of ciprofloxacin-induced antibiofilm activity by measuring reduction of CFU biofilm cells at 1000 ug/ml measured after 24 hrs in presence of 1/8XMIC ciprofloxacin by visual counting method; assay type: functional, organism-based; conditions: dose 1000.0 µg/ml
[25] = tested on: Staphylococcus aureus; assay: Antibacterial activity against Staphylococcus aureus CECT 976 assessed as inhibition of bacterial growth by measuring inhibition zone diameter at 1000 ug/ml incubated for 24 hrs in presence of ciprofloxacin by disc diffusion method (reference value: 29.25 +/- 0.96 mm); assay type: functional; conditions: read-out: DIZ
[26] = tested on: Staphylococcus aureus; assay: Inhibition of virulence production in Staphylococcus aureus CECT 976 biofilms assessed as diameter of siderophores halo at 1/2XMTC measured after 48 hrs in presence of 1/2XMIC tobramycin (reference value: 10.5 +/-0.6 mm); assay type: functional
[27] = tested on: Cell membrane; assay: Disruption of membrane integrity in Staphylococcus aureus CECT 976 biofilm assessed as increase in PI uptake at 500 ug/ml measured after 24 hrs in presence of 1/8X to 1/2XMIC tobramycin by flow cytometry; assay type: subcellular; conditions: dose 500.0 µg/ml
[28] = tested on: Staphylococcus aureus; assay: Inhibition of virulence production in pre-established 24 hr-old Staphylococcus aureus CECT 976 biofilms assessed as diameter of protease halo at 1XMTC measured after 72 hrs (reference value: 12.3 to 13.3 mm); assay type: functional

Row | SMILES | Activity [1] | Activity [2] | Activity [3] | MBC [4] | Activity [5] | viability at 24 h [6] | Activity [7] | MIC [8] | MIC [9] | Activity [10] | Activity [11] | zone of inhibition at 1000 µg/mL [12] | Activity [13] | inhibition (INH) [14] | zone of inhibition at 100 µg/mL [15] | Activity [16] | Activity [17] | Activity [18] | MBC [19] | Activity [20] | also measured
1 | O=c1cc(CO)occ1O [KOJIC ACID] | 10 mm | inactive | 0 mm | 1 µg/mL | 2.3 mm | > 80% | 0 mm | 16 µg/mL | > 1000 µg/mL | Active; Slight Increase Noted | Active | 9.5 mm | 9.5 mm | 80% | 12 mm | 0 mm | 10 mm | Active | > 1000 µg/mL | 0 mm | Activity [21]: 9 mm; Activity [22]: 10 mm; Activity [23]: 0 mm; Activity [24]: inactive; zone of inhibition at 1000 µg/mL [25]: 30.8 mm; Activity [26]: 9.75 mm; Activity [27]: inactive; Activity [28]: 3.5 mm
2 | Cc1occc(=O)c1O [MALTOL] | 10 mm | inactive | 0 mm | 1 µg/mL | 2 mm | > 80% | 0 mm | 16 µg/mL | > 1000 µg/mL | Active; Slight Increase Noted | Active | 17.5 mm | 9.5 mm | 80% | 11.8 mm | 0 mm | 10.3 mm | Active | > 1000 µg/mL | 0 mm | Activity [21]: 10 mm; Activity [22]: 10 mm; Activity [23]: 0 mm; Activity [24]: inactive; zone of inhibition at 1000 µg/mL [25]: 33 mm; Activity [26]: 9.5 mm; Activity [27]: inactive; Activity [28]: 3.5 mm
